# Results reported in patent US12714698B2, “Compositions and methods for treating or preventing dermal disorders” (Drexel University, priority 2015, dated 2026).
# Assays:
# [1] = system: seborrheic keratosis lesion; experiment: Topical treatment of a seborrheic keratosis lesion; assay type: in vivo, human; settings: 21 days, 10 μM rapamycin in an emulsified gel preparation
# Experimental: FIG. 20 is a photograph of a seborrheic keratosis lesion before and after 21 days of treatment with 10 μM rapamycin in an emulsified gel preparation as in FIG. 19.
# [2] = system: human cardiac fibroblasts; experiment: Nanostring analysis of mRNA levels; assay type: cell-based; settings: rapamycin
# Experimental: (§1) Cell culture experiments utilizing NRTIs were of the following design. Cultures of either human lung or cardiac fibroblasts were cultivated according to standard culture protocols for these cells (Cristofalo, et al., Journal of Tissue Culture Methods 1980, 6:117-121). Parallel sets of cultures were maintained in normal growth media or in normal growth media with the addition of 1 nM rapamycin. Cultures were maintained with 1 nM rapamycin (Enzo Biologicals) for two weeks before exposure to NRTIs. Cell cultures were exposed to NRTIs at indicated concentrations in individual experiments (generally 10-20 μg/ml) for 7 days, with a change of media and fresh NRTIs at day 4. Mitochondrial measurements, bioanalyzer measurements, immunoblotting for protein expression and phosphorylation status, and assays for senescence were performed at the end of this 7-day period.
# Differences in mitochondria-related gene expression was examined using a nanostring approach which allows multiplex evaluation of mRNA species in the absence of amplification and provides a direct count of mRNA molecules. The mRNA levels paralleled the changes observed in protein levels as mRNA levels for all subunits increased in cells exposed to NRTIs while rapamycin decreased mRNA levels for all subunits (FIGS. 2D-2H).
# [3] = system: dermal atrophy and actinic keratosis; experiment: Single site open label study, topical application in a patient; assay type: in vivo, human; settings: 14 days of rapamycin treatment in an emulsified gel preparation, digital caliper
# Experimental: In certain embodiments, dermal atrophy is evaluated by measurement of the dermal layer utilizing a calibrated digital caliper measurement of the dermal layer. In other embodiments, improvement in seborrheic keratosis, lentigines, pseudoscars, coarse wrinkles, and epidermal thickening is evaluated through an investigator evaluation rating scale of 1-4, in which 1 is normal with no sign of lesion; 2 represents minor lesions; 3 represents lesions that are distinct features relative to normal skin; and 4 represents lesions that are of high severity. […] In yet other embodiments, lesions are evaluated by area measurement using manual measurement of the lesion or through analysis of images taken by investigators or research study staff.
# Patients presenting to a physician with a diagnosis of dermal atrophy, seborrheic keratosis, actinic keratosis, lentigines, senile pseudoscars, or coarse wrinkles were selected for administration of a composition of the invention. Dermal thickness was quantified using a Mitoutoyo digital caliper with certified accuracy to 0.001 mm. […]
# A single site open label study was performed. A patient presenting with an area of dermal atrophy and actinic keratosis on the hand was evaluated for application of Formulation R. the contralateral hand with similar dermal thickness but no actinic keratosis was used as a control. […]
# human lung fibroblasts = experiment: Mitochondrial respiration, Seahorse Bioanalyzer, lung fibroblasts; assay type: cell-based; settings: rapamycin-treated lung fibroblasts
# Experimental: Cell culture reagents were from Cellgro, unless indicated. […]
# Mitochondrial function was measured using the XF cell mito stress test kit on a Seahorse XF24 Bioanalyzer (Seahorse Bioscience). […] Following acquisition, results were normalized based upon 10^6 cells counted using a Guava EasyCyte Mini (Millipore), where applicable. […] Mitochondrial respiration was calculated based upon oxygen consumption rate measurements in triplicates from cells seeded in at least quadruplicates. […]
# [4] = system: ribosomal S6 protein and MDM2; experiment: Immunoblot of ribosomal S6 protein and MDM2 phosphorylation (mTORC1/p70S6K signaling); assay type: cell-based, human; settings: agent added to NRTI-exposed cardiac fibroblasts
# Experimental: as §1
# Cell culture reagents were from Cellgro, unless indicated. WI-38 fetal-lung primary human fibroblasts or human cardiac fibroblasts were grown in MEM supplemented with 10% fetal bovine serum, 1% L-glutamine, MEM vitamins, and MEM non-essential amino acids. Cells were maintained in a 37° C. in 5% CO2 incubator. For treatment studies, cells were treated with 1 nM rapamycin (Enzo Biologicals) for two weeks before treatment with NRTIs. Cells were maintained by trypsinization and reseeding at a cell density of 1×10^4/cm^2 every 7 to 10 days. Emtricitabine (FTC) and tenofovir disoproxil fumarate (TDF) were kindly provided by the NIH AIDS Research & Reference Reagent program. During the 7-day exposure to the NRTIs, the pharmacologic inhibitors PD98059 (10 μM, Santa Cruz Biotechnologies), BI-D1870, GW5074, and SB203580 (10 μM, Enzo Biologicals) were added to the culture medium either during the final 48 hours or for the final 2 hours depending upon the experiment. During the 7-day exposure to NRTIs, Trolox (500 μM) and N-acetylcysteine (100 μM, Acros Organics) were added every other day. Mito-Q (20 nM) and TPP (20 nM) were kindly provided by Dr. Brett Kaufmann at the University of Pennsylvania School of Veterinary Medicine. Vector and mt-catalase adenoviruses (MOI's 25, 50, and 75) were purchased from Gene Transfer Vector Core from the University of Iowa.
# Cell protein extracts were prepared by extracting with radioimmunoprecipitation assay (RIPA) buffer containing a protease inhibitor cocktail (Sigma-Aldrich) and phosphatase inhibitors, NaF and sodium orthovanadate. Protein concentration was quantified using a bicinchoninic acid (BCA) assay (Pierce Biotechnology). Western blot analysis was performed using 15 to 30 μg of protein extracts that were run on SDS-PAGE and transferred onto nitrocellulose (Biorad) membranes. Blots were incubated with antibodies specific for: beta-actin (Sigma-Aldrich), TFAm, parkin, p16, phospho(S82)HSP27, HSP27 (Santa Cruz Biotechnologies), p53, 21, catalase, MDM2 (EMD Millipore), VDAC, phospho(S235/236)-ribosomal protein S6, ribosomal protein S6, phospho(S166)-MDM2, phospho(5473)-AKT, AKT, beta-tubulin (Cell Signaling), p62 (Enzo Biologicals), IL-6 (NeoBiolab), lamin B1, PINK1, and Mitoprofile Total OXPHOS Cocktail (complex I-NDUFB8 subunit, CII-SDHB subunit, […]2 subunit, and CIV-mitochondrial COX1 subunit) (Abcam) according to manufacturers' instructions. Western blots were visualized using IRDye 680 and 800 LI-COR secondary antibodies on a LI-COR Odyssey using LI-COR Odyssey software version 3.0 (LI-COR Biosciences). For co-immunoprecipitation, cell protein extracts were prepared in HNTG buffer containing a protease inhibitor cocktail and quantified using BCA assay. Protein extracts at the concentration of 0.5 mg were pre-cleared with protein A/G beads (Santa Cruz Biologicals) for 30 minutes. After centrifugation at 2,000 rpm for 5 minutes at 4° C., the supernatant was incubated with the primary antibody at manufacturer's recommended concentration overnight at 4° C. An IgG antibody (Cell Signaling) was used as a non-specific control.
compound,measurement,setting,value
CO[C@H]1C[C@@H]2CC[C@@H](C)[C@@](O)(O2)C(=O)C(=O)N2CCCC[C@H]2C(=O)O[C@H]([C@H](C)C[C@@H]2CC[C@@H](O)[C@H](OC)C2)CC(=O)[C@H](C)/C=C(\C)[C@@H](O)[C@@H](OC)C(=O)[C@H](C)C[C@H](C)/C=C/C=C/C=C/1C [rapamycin],"severity of seborrheic keratosis lesion, visual inspection",[1],significant reduction in severity
same,mRNA levels for ETC subunits,[2],decreased
same,dermal thickness in atrophic skin,[3],increases dermal thickness
same,"basal and maximal respiration, proton leak following exposure to NRTIs",human lung fibroblasts,no increase
same,MDM2 phosphorylation in cells exposed to NRTIs,[4],no increase
same,ribosomal S6 phosphorylation in cells exposed to NRTIs,[4],complete lack
